One test deals with MDM2–p53 (Homo sapiens, UniProt Q00987). Nature of the test: MDM2–p53 ELISA protein–protein binding assay. A general note: ELISA stands for enzyme-linked immunosorbent assay.
The nature of test [1]: Growth inhibitory activity, A2708 (Table S3). It is filed as cell-based. The settings on record: read-out: GI50 A2708. The text has this: (§1) (2 pictures or pasted objects on this page, not shown here)
Another test concerns A2780-CP70. Nature of the test: Growth inhibitory activity, A2780-CP70 (Table S3). It is filed as cell-based. The following applies: A2780/CP70, read-out: GI50 A2780-CP70.
From the text: as §1

The test system of a further test is HCT116. Nature of the test: Growth inhibitory activity, HCT116 (Table S3). It is filed as cell-based. The settings on record: Homo sapiens, HCT-116, read-out: GI50 HCT116.
From the text: as §1

The next test relates to HCT116 p53(-/-). Nature of the test: Growth inhibitory activity, HCT116 p53(-/-) (Table S3). Type of test: cell-based. The following applies: Homo sapiens, HCT-116, read-out: GI50 HCT116 p53(-/-).
From the text: as §1

The next test deals with SJSA-1 cells. It is filed as cell-based. The following applies: SJSA-1 (MDM2 amplified, p53wt), 5 μM, 4 h.
Another test relates to A2780CP70 cells. It is filed as cell-based. The settings on record: A2780 CP70 (p53 mutant), 0.1, 0.2 and 5 μM, 4 h.
Another test concerns SJSA-1. Briefly: Growth inhibitory activity, SJSA-1. The following applies: Homo sapiens, SJSA-1, read-out: GI50 SJSA-1.
The target in the next test is T1, MDMX–p53 (Homo sapiens, UniProt O15151).
T1 construct: host or cells: in vitro coupled T7 transcription and rabbit reticulocyte lysate translation
T1 sequence (O15151 1-490): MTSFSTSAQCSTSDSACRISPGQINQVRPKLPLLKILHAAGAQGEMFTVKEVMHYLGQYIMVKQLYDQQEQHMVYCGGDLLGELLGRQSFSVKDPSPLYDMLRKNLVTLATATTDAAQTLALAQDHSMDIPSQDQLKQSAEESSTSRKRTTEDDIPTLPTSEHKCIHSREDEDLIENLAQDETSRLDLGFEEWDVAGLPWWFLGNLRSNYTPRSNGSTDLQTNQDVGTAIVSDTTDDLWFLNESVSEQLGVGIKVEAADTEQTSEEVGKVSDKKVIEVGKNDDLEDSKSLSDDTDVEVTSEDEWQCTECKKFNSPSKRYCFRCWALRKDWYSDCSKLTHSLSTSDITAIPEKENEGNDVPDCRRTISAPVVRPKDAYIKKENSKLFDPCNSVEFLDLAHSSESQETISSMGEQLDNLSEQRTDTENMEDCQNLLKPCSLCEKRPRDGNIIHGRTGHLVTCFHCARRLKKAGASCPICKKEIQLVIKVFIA
Briefly: MDMX–p53 ELISA binding assay.

The subject of a further test is A2780 cells. It is filed as cell-based. The following applies: A2780 (p53wt), 0.1, 0.2 and 5 μM, 4 h.
The test system of the next test is SN40R2. Nature of the test: Growth inhibitory activity, SN40R2. The following applies: read-out: GI50 SN40R2.
Another test has as its system MRK-NU-1. Briefly: Growth inhibitory activity, MRK-NU-1. The following applies: Homo sapiens, MRK-nu-1, read-out: GI50 MRK-NU-1.
In the next test the test system is MDM2. The settings on record: read-out: MDM2–p53 IC50; cited from earlier work.

Where two headings read alike, the source gives them in different places.

Sequence of MDM2–p53 (Q00987 whole entry): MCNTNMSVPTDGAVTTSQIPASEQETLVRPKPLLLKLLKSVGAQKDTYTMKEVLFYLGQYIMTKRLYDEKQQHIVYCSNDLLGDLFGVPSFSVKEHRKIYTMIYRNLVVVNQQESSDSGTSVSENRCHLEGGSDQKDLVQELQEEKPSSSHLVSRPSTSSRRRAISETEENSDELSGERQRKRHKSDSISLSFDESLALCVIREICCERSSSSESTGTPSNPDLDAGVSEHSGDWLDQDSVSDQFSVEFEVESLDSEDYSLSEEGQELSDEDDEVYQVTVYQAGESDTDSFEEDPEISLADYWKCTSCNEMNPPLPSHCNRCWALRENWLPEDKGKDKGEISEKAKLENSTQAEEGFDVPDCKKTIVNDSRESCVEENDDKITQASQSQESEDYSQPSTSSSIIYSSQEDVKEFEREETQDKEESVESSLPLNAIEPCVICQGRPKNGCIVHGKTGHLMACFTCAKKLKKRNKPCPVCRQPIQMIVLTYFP
Protocol for MRK-NU-1: (§2) Growth inhibitory activity was determined for selected pyrroles in a panel of cell lines with defined MDM2, MDMX and p53 status (Table 5).
Protocol for SN40R2: as §2

With `Cc1cc(C=C2C(=O)NC(=S)NC2=O)c(C)n1-c1sc2c(c1C#N)CCCC2` [Compound 3, 2-(3-((4,6-dioxo-2-thioxotetrahydropyrimidin-5(2H)-ylidene)methyl)-2,5-dimethyl-1H-pyrrol-1-yl)-4,5,6,7-tetrahydrobenzo[b]thiophene-3-carbonitrile], the IC50 (usually the concentration that gives 50% inhibition) at MDM2–p53 is 12.3 µM. Further, the GI50 in test [1] was determined as 3.9 ± 0.1 µM; with A2780-CP70, 3.9 ± 0.1 µM; with HCT116, 7.8 ± 0.2 µM; with HCT116 p53(-/-) it was 7.7 ± 0.1 µM; in the test with SJSA-1, 4.4 ± 0.1 µM. In addition, the “induction of MDM2, p53, and p21 (Western blot)” value (shortened to “induction of MDM2, p53, and p21”) in the test on SJSA-1 cells is reported as “clearly visible”; in the test with A2780CP70 cells, “no induction”.

On to `O=C1NC(=S)NC(=O)C1=Cc1cc(-c2ccccc2)n(-c2ccc(Cl)cc2)c1-c1ccccc1` [Compound 4c, 5-((1-(4-chlorophenyl)-2,5-diphenyl-1H-pyrrol-3-yl)methylene)-2-thioxodihydropyrimidine-4,6(1H,5H)-dione], for which the IC50 at MDM2–p53 turned out to be 0.12 ± 0.02 µM; at MDM2–p53 (read-out: MDM2 IC50) it was 0.11 ± 0.03 µM; at MDMX–p53 (read-out: MDMX IC50), 4.2 ± 1.2 µM. Also, on MDM2–p53, the “fold more potent than the comparable 2,5-dimethyl analogues (4a, 4b)” value is on record as 5–10 fold. Also, the “induction of MDM2, p53, and p21” value is given as “clearly visible” in the test with SJSA-1 cells and “no induction” with A2780CP70 cells. Also, the “induction of MDM2 and p21 (Western blot)” value with A2780 cells was “observed”. Also, the GI50 in the test with SJSA-1 was determined as 2.3 ± 0.2 µM; in the test on SN40R2, 2.8 ± 0.6 µM; with MRK-NU-1, 2.3 ± 0.3 µM.

For the molecule `O=C1NC(=S)N(c2ccccc2)C(=O)/C1=C/c1cc(-c2ccccc2)n(-c2ccc(Cl)cc2)c1-c1ccccc1` [Compound 4d], on MDM2–p53, the “fold more potent than the comparable 2,5-dimethyl analogues (4a, 4b)” value was 5–10 fold. On MDM2–p53 (read-out: MDM2 IC50), the IC50 was 0.23 ± 0.044 µM. The figures for the “induction of MDM2, p53, and p21” value in the test on SJSA-1 cells and with A2780CP70 cells were “clearly visible” and “no induction”, respectively. For the same molecule, the “induction of MDM2 and p21 (Western blot)” value in the test on A2780 cells is “observed”.

As to `Cc1ccc(-n2c(C)cc(/C=C3\C(=O)NC(=S)N(c4ccccc4)C3=O)c2C)cc1` [Compound 4i], on MDM2–p53 (read-out: MDM2 IC50), the IC50 is 8.4 ± 0.9 µM. In addition, the GI50 was determined as 7.5 ± 0.1 µM in test [1]; 9 ± 0.4 µM in the test with A2780-CP70; 9.5 ± 0.3 µM in the test on HCT116; 9.7 ± 0.2 µM in the test with HCT116 p53(-/-); 7.1 ± 0.1 µM with SJSA-1.

As for `N#Cc1ccc(-n2c(-c3ccccc3)cc(C=C3C(=O)NC(=S)NC3=O)c2-c2ccccc2)cc1` [Compound 4r], the results for the half-inhibitory concentration (IC50) on MDM2–p53 (read-out: MDM2 IC50) and at MDMX–p53 (read-out: MDMX IC50) were 0.2 ± 0.07 µM and 0.9 ± 0.42 µM, respectively. Moreover, the GI50 stood at 5.1 ± 0.9 µM with SJSA-1, 5.9 ± 0.3 µM in the test on SN40R2 and 6.1 ± 0.7 µM in the test on MRK-NU-1.

`O=C1NC(=S)NC(=O)C1=Cc1cc(-c2ccccc2)n(-c2ccc([N+](=O)[O-])cc2)c1-c1ccccc1` [Compound 4t]: the results for the IC50 on MDM2–p53 (read-out: MDM2 IC50) and at MDMX–p53 (read-out: MDMX IC50) were 0.17 ± 0.09 µM and 0.63 ± 0.12 µM, respectively. Further, the GI50 was 4.7 ± 1 µM in the test with SJSA-1, 5.2 ± 0.4 µM with SN40R2 and 4.9 ± 0.6 µM with MRK-NU-1.

With `CN1C(=O)C(=Cc2cc(-c3ccccc3)n(-c3ccc(Cl)cc3)c2-c2ccccc2)C(=O)NC1=S` [Compound 4x], the IC50 on MDM2–p53 was 0.11 ± 0.02 µM; at MDMX–p53, 28 ± 23 µM. In addition, the values for the GI50 in the test on SJSA-1, in the test on SN40R2 and in the test on MRK-NU-1 were 5.5 ± 0.6 µM, 6.3 ± 0.4 µM and 7 ± 1 µM, respectively.

For `CCOc1cc(C(C)(C)C)ccc1C1=N[C@@](C)(c2ccc(Cl)cc2)[C@@](C)(c2ccc(Cl)cc2)N1C(=O)N1CCN(CCCS(C)(=O)=O)CC1` [RG-7112], in the test on MDM2, the IC50 is 0.012 µM.

The record behind these values is PMC3777193, “Diaryl- and triaryl-pyrrole derivatives: inhibitors of the MDM2–p53 and MDMX–p53 protein–protein interactions” (Medchemcomm, 2013).
